Earlier results as cited in PMC6261507 (ACS applied nano materials, 2018).

System: integrin αvβ3

Arg-Gly-Asp [RGD, arginine-glycine-aspartic acid]
affinity towards integrin αvβ3: nanomolar affinity
